The text below walks through data of the supplement of paper PMC3974653.

Where a name gives a salt, the structure may show the parent alone.

In this test the test system is MTT (mouse pheochromocytoma). The test is described as follows: IC50 of cell viability (ATP content). Conditions: (24 or 48 h). The gist of the method: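 Each well of a white 1536-well plate received 5 µl of MTT mouse pheochromocytoma cells at 200,000 cells/ml in DMEM containing 5% FBS and 1% horse serum. After overnight culture at 37°C, 5% CO2, cells were exposed for 24 or 48 hrs to 23 nl of library compound in DMSO, pinned at 8 final concentrations from 0.5 nM to 46 µM. CellTiter-Glo luminescence was read after 15 minutes, and IC50 was obtained from a four-parameter logistic fit of signals normalised to positive-control and DMSO wells.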

For `CSCCC(NC(=O)[C@H](Cc1c[nH]c2ccccc12)NC(=O)CNC(=O)[C@H](CCSC)NC(=O)[C@H](Cc1ccc(O[S+](=O)([O-])O)cc1)NC(=O)[C@@H](N)CC(=O)O)C(=O)N[C@@H](CC(=O)O)C(=O)N[C@@H](Cc1ccccc1)C(N)=O` (some centres not stated) [(Tyr[SO3H]27)Cholecystokinin fragment 26-33 Amide], the “IC50 of cell viability” value was more than 46 µM.

For `C[C@@H]1CCC[C@H](C)N1` [(cis-) Nanophine], the “IC50 of cell viability” value was more than 46 µM.

Turning to `COc1ccc2c(c1OC)CN1CCc3cc4c(cc3[C@H]1C2)OCO4` [(d,l)-Tetrahydroberberine], the “IC50 of cell viability” value was more than 46 µM.

Consider `C\C1=C(/C)C(=O)\C(=C(\C)C1=O)CCCCC#CCCCC#CCO` [AA-861], for which the “IC50 of cell viability” value is more than 46 µM.

Turning to `Nc1nc(NC2CC2)c2ncn([C@H]3C=C[C@@H](CO)C3)c2n1` [ABACAVIR SULFATE], the “IC50 of cell viability” value is more than 46 µM.

In the case of `CC(=O)NCCCS(=O)(=O)[O-]` [ACAMPROSATE CALCIUM], the “IC50 of cell viability” value is more than 46 µM.

For `CCN(CC)CCNC(C(=O)OCCC(C)C)c1ccccc1` (configuration not stated) [ACAMYLOPHENINE HYDROCHLORIDE], the “IC50 of cell viability” value is more than 46 µM.

Turning to `CCN(CC)CCNC(=O)c1ccc(NC(C)=O)cc1.Cl` [ACECAINIDE HYDROCHLORIDE], the “IC50 of cell viability” value is more than 46 µM.

Regarding `CC(=O)OC1CN2CCC1CC2` (configuration not stated) [ACECLIDINE], the “IC50 of cell viability” value was more than 46 µM.

With `CC(=O)O[C@@H]1C(=O)O[C@H]2[C@@H]1OC(=O)[C@@H]2OC(C)=O` [ACEGLATONE], the “IC50 of cell viability” value was more than 46 µM.

`CC(=O)Nc1ccc(OC(=O)c2ccccc2O)cc1` [ACETAMINOSALOL]: the “IC50 of cell viability” value was more than 46 µM.

Turning to `CC(=O)Nc1cc([As](=O)(O)O)ccc1O` [ACETARSOL], the “IC50 of cell viability” value is more than 46 µM.

With `CC(=O)NO` [ACETOHYDROXAMIC ACID], the “IC50 of cell viability” value was more than 46 µM.

With `CC(=O)Nc1c(I)cc(I)c(C(=O)O)c1I` [ACETRIAZOIC ACID], the “IC50 of cell viability” value was more than 46 µM.

For the compound `CC(=O)N[C@@H]1C(O)OC(CO)C(O)C1O` (some centres not stated) [ACETYLGLUCOSAMINE], the “IC50 of cell viability” value is more than 46 µM.

In the case of `CCC(C(=O)NC(=O)NC(C)=O)c1ccccc1` (configuration not stated) [ACETYLPHENETURIDE (CRAMPOL)], the “IC50 of cell viability” value was more than 46 µM.

With `CC(=O)NCCCCCC(=O)O` [ACEXAMIC ACID], the “IC50 of cell viability” value is more than 46 µM.

Regarding `CC(=O)NC1[C@H](O)C[C@@](O)(C(=O)O)O[C@H]1[C@H](O)[C@H](O)CO` (some centres not stated) [ACIDUM ACENEURAMICUM], the “IC50 of cell viability” value is more than 46 µM.

Take `COc1ccc(C(=O)/C(Br)=C/C(=O)O)cc1` [ACIDUM BROMEBRICUM]: the “IC50 of cell viability” value was more than 46 µM.

Consider `COc1cc(C(=O)NCCCCCC(=O)O)cc(OC)c1OC` [ACIDUM CAPOBENICUM], for which the “IC50 of cell viability” value was more than 46 µM.

Consider `Cc1cccc(Nc2ncccc2C(=O)O)c1C` [ACIDUM NIXYLICUM], for which the “IC50 of cell viability” value is more than 46 µM.

With `O=C(O)COc1ccc(C(=O)c2cccs2)c(Cl)c1Cl` [ACIDUM TIENILICUM], the “IC50 of cell viability” value is more than 46 µM.

Regarding `COc1cc(C)c(/C=C/C(C)=C/C=C/C(C)=C/C(=O)O)c(C)c1C` [ACITRETIN], the “IC50 of cell viability” value is more than 46 µM.

On to `N[C@H]([C@@H]1C\C(=N/O1)Cl)C(O)=O` [ACIVICIN], for which the “IC50 of cell viability” value was more than 46 µM.

As to `CCN1C[C@]2(COC)[C@H](O)C[C@H](OC)[C@]34C1C([C@H](OC)[C@H]23)[C@]1(OC(C)=O)[C@H]2[C@@H](OC(=O)c3ccccc3)[C@](O)(C[C@H]24)[C@@H](OC)[C@@H]1O` [ACONITINE], the “IC50 of cell viability” value is more than 46 µM.

Take `CCOc1ccc2nc3cc(N)ccc3c(N)c2c1` [ACRINOL]: the “IC50 of cell viability” value is more than 46 µM.

As for `CC(C)(C)C(=O)OCOP(=O)(COCCn1cnc2c(N)ncnc21)OCOC(=O)C(C)(C)C` [ADEFOVIR DIPIVOXIL], the “IC50 of cell viability” value is more than 46 µM.
